Earlier results in US12653950B2, “Predictive biological homeostasis” (priority 2020, dated 2026).

How the values were obtained:
[1] = in vivo
NF-κB = settings: pro-inflammatory signaling pathway involved in Lyme-induced inflammation
[2] = not given; remark: listed apart in the source
Borrelia burgdorferi = settings: one animal study (Pothineni et al. 2020)

For `Nc1nc2c(ncn2COCCO)c(=O)[nH]1` [Acyclovir], which “toxic side effects in the kidneys” value [1] is on record?
The value was “toxic side effects in the kidneys”.

Which “activation of NF-κB” value (NF-κB) does the source give for `COc1cc(/C=C/C(=O)CC(=O)/C=C/c2ccc(O)c(OC)c2)ccc1O` [Curcumin] here?
The value was “blocking the activation”.

For `O=c1c(O)c(-c2ccc(O)c(O)c2)oc2cc(O)cc(O)c12` [Quercetin], which “stability in physiological systems” value is on record?
Its value is “unstable”.

And the solubility in water [2]?
The solubility in water was “poorly soluble”.

For `CC1(C)S[C@@H]2[C@H](NC(=O)[C@H](NC(=O)N3CCNC3=O)c3ccccc3)C(=O)N2[C@H]1C(=O)O` [azlocillin], which “killing of disease-causing bacteria Borrelia burgdorferi” value (Borrelia burgdorferi) is on record?
The value was “completely kills off”.
